Patent publication US20150353495A1 (PORTOLA PHARMACEUTICALS, INC., priority 2010, published 2015)

Experiments:
Format in all cases: biochemical
JAK2 = biological target: T1, JAK2 (Homo sapiens, UniProt O60674); test: Z'-LYTE kinase assay JAK2
T1 construct: 5 μl of catalytic domain recombinant Kinase enzyme+Tyr peptide substrate (Invitrogen, CA); purchased Invitrogen
Experimental: (§1) JAK and TYK2 tyrosine phosphorylation activity is measured using the Z′-LYTE™ Technology developed by Invitrogen Corporation (Carlsbad, Calif.). For JAK1, JAK2 and JAK3 the Z′-LYTE™ Kinase Assay Kit-Tyr6 Peptide (part number PV4122) was used. For TYK2 the Z′-LYTE™ Kinase Assay Kit-Tyr6 Peptide (part number PV3192) was used. The Z′-LYTE™ biochemical assay employs a fluorescence resonance energy transfer (FRET) coupled-enzyme format and is based on the differential sensitivity of phosphorylated and non-phosphorylated peptides to proteolitic cleavage. The assay uses a synthetic peptide substrate that is labelled with a donor fluorophore (coumarin) and an acceptor fluorophore (fluorescein) that make up a FRET pair. In the primary reaction (the Kinase Reaction), the kinase transfers the γ-phosphate of ATP to a single tyrosine residue on the substrate, while the presence of a kinase inhibitor in the primary reaction suppresses phosphorylation. In the secondary reaction (the Development Reaction), a site-specific protease (the Development Reagent) is added. The development buffer quenches the Kinase Reaction, while the protease recognizes and cleaves non-phosphorylated Z′-LYTE™ peptide substrate. Cleavage disrupts FRET between the donor and acceptor fluorophores on the non-phosphoryleted substrate, while uncleaved, phosphorylated substrate maintains FRET.
(§2) To test the ability of candidate molecules to inhibit JAK tyrosine phosphorylation activity, molecules are reconstituted in 100% DMSO and serially diluted 1:10 in polypropylene v-bottom microtiter plates. The candidate molecules are then diluted 1:25 into kinase buffer and 2.5 μl transferred into duplicate wells of a 384 well low volume black microtiter assay plate (Corning, USA). The final DMSO concentration in the assay is 1%. The kinase reaction contains 2.5 μl of a candidate molecule, 5 μl of catalytic domain recombinant Kinase enzyme+Tyr peptide substrate (Invitrogen, CA) and 2.5 μl ATP (Invitrogen, CA). The kinase reaction is allowed to procede for 1 hour at room temperature. The protease reaction is initiated by the addition of 5 μl Development Reagent (Invitrogen, CA). After 1 hour incubation at room temperature the fluorescence is measured using a FlexStation plate reader (Molecular Devices, Sunnyvale, Calif.).

JAK1 = biological target: T2, JAK1 (Homo sapiens, UniProt P23458); test: Z'-LYTE kinase assay JAK1
T2 construct: 5 μl of catalytic domain recombinant Kinase enzyme+Tyr peptide substrate (Invitrogen, CA); purchased Invitrogen
T2 sequence (P23458 875-1153 limits assumed): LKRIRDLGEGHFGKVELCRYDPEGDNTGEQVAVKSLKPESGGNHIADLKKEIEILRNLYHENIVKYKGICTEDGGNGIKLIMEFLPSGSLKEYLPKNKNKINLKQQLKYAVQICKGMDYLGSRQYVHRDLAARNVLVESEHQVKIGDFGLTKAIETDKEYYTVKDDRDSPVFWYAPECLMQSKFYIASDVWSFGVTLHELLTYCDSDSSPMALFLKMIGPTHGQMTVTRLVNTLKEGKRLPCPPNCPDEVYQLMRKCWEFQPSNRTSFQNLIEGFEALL
Experimental: as §1, §2

JAK3 = biological target: T3, JAK3 (Homo sapiens, UniProt P52333); test: Z'-LYTE kinase assay JAK3
T3 construct: 5 μl of catalytic domain recombinant Kinase enzyme+Tyr peptide substrate (Invitrogen, CA); purchased Invitrogen
T3 sequence (P52333 822-1111 limits assumed): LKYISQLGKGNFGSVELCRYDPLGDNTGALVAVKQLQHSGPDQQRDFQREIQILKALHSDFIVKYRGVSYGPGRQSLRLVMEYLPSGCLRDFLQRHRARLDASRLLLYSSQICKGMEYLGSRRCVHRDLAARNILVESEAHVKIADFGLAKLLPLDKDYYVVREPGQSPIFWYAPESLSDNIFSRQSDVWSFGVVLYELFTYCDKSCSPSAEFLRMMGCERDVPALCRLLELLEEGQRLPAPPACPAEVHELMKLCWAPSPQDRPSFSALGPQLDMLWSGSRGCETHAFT
Experimental: as §1, §2

T1 sequence (O60674 849-1124 limits assumed): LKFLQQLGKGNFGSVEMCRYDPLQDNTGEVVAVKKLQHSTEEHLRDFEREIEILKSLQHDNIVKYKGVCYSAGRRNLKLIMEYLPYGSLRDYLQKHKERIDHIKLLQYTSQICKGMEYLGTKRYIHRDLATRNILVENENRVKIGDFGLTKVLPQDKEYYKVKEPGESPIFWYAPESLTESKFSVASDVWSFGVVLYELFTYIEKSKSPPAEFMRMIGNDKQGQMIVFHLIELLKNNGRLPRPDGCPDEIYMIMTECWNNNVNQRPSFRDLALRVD

IC50 (JAK2) [nM]	IC50 (JAK1) [nM]	IC50 (JAK3) [nM]	SMILES
100 to 1000	100 to 1000	100 to 1000	NC(=O)c1cnc(Nc2ccc(C3CCOCC3)cc2)cc1NC1CCCC1 [Example 150, 4-(cyclopentylamino)-6-(4-(tetrahydro-2H-pyran-4-yl)phenylamino)nicotinamide]
100 to 1000	100 to 1000	100 to 1000	NC(=O)c1cnc(Nc2cccc(C3CCOCC3)c2)cc1NC1CCOCC1 [Example 151, 6-(3-(tetrahydro-2H-pyran-4-yl)phenylamino)-4-(tetrahydro-2H-pyran-4-ylamino)nicotinamide]
10 to 100	100 to 1000	1 to 10	NC(=O)c1cnc(Nc2cccc(C3CCOCC3)c2)cc1NCc1ccccc1F [Example 152, 4-(2-fluorobenzylamino)-6-(3-(tetrahydro-2H-pyran-4-yl)phenylamino)nicotinamide]
100 to 1000	> 1000	100 to 1000	NC(=O)c1cnc(Nc2ccc(C3CCOCC3)cc2)cc1NCC1CC1 [Example 153, 4-(cyclopropylmethylamino)-6-(4-(tetrahydro-2H-pyran-4-yl)phenylamino)nicotinamide]
100 to 1000	> 1000	10 to 100	NC(=O)c1cnc(Nc2ccc(C3CCOCC3)cc2)cc1NCC1CCCC1 [Example 154, 4-(cyclopentylmethylamino)-6-(4-(tetrahydro-2H-pyran-4-yl)phenylamino)nicotinamide]
100 to 1000	100 to 1000	100 to 1000	CC(C)(C)CNc1cc(Nc2ccc(C3CCOCC3)cc2)ncc1C(N)=O [Example 155, 4-(neopentylamino)-6-(4-(tetrahydro-2H-pyran-4-yl)phenylamino)nicotinamide]
100 to 1000	100 to 1000	100 to 1000	CC(C)CNc1cc(Nc2ccc(C3CCOCC3)cc2)ncc1C(N)=O [Example 156, 4-(isobutylamino)-6-(4-(tetrahydro-2H-pyran-4-yl)phenylamino)nicotinamide]
> 1000	> 1000	100 to 1000	NC(=O)c1cnc(Nc2ccc(C3CCOCC3)cc2)cc1NC1CCCCC1 [Example 157, 4-(cyclohexylamino)-6-(4-(tetrahydro-2H-pyran-4-yl)phenylamino)nicotinamide]
> 1000	> 1000	10 to 100	CC(C)c1ccc(Nc2cc(NCc3ccccc3F)c(C(N)=O)cn2)cc1 [Example 158, 4-(2-fluorobenzylamino)-6-(4-isopropylphenylamino)nicotinamide]
> 1000	> 1000	100 to 1000	CS(=O)(=O)N1CCC(CNc2cc(Nc3ccc(C4CCOCC4)cc3)ncc2C(N)=O)CC1 [Example 159, 4-((1-(methylsulfonyl)piperidin-4-yl)methylamino)-6-(4-(tetrahydro-2H-pyran-4-yl)phenylamino)nicotinamide]
> 1000	> 1000	> 1000	CCS(=O)(=O)N1CCC(CNc2cc(Nc3ccc(C4CCOCC4)cc3)ncc2C(N)=O)CC1 [Example 160, 4-((1-(ethylsulfonyl)piperidin-4-yl)methylamino)-6-(4-(tetrahydro-2H-pyran-4-yl)phenylamino)nicotinamide]
> 1000	> 1000	> 1000	CCC(=O)N1CCC(CNc2cc(Nc3ccc(C4CCOCC4)cc3)ncc2C(N)=O)CC1 [Example 161]
> 1000	> 1000	100 to 1000	CC(C)c1cccc(Nc2cc(NCc3ccccc3F)c(C(N)=O)cn2)c1 [Example 162, 4-(2-fluorobenzylamino)-6-(3-isopropylphenylamino)nicotinamide]
> 1000	> 1000	100 to 1000	CN(C)C(=O)N1CCC(Nc2cc(Nc3ccc(C4CCOCC4)cc3)ncc2C(N)=O)CC1 [Example 163, 4-(1-(dimethylcarbamoyl)piperidin-4-ylamino)-6-(4-(tetrahydro-2H-pyran-4-yl)phenylamino)nicotinamide]
> 1000	> 1000	> 1000	CCC(=O)N1CCC(Nc2cc(Nc3ccc(C4CCOCC4)cc3)ncc2C(N)=O)CC1 [Example 164, 4-(1-propionylpiperidin-4-ylamino)-6-(4-(tetrahydro-2H-pyran-4-yl)phenylamino)nicotinamide]
> 1000	100 to 1000	100 to 1000	CS(=O)(=O)N1CCC(Nc2cc(Nc3ccc(C4CCOCC4)cc3)ncc2C(N)=O)CC1 [Example 165, 4-(1-(methylsulfonyl)piperidin-4-ylamino)-6-(4-(tetrahydro-2H-pyran-4-yl)phenylamino)nicotinamide]
100 to 1000	> 1000	100 to 1000	CCS(=O)(=O)N1CCC(Nc2cc(Nc3ccc(C4CCOCC4)cc3)ncc2C(N)=O)CC1 [Example 166, 4-(1-(ethylsulfonyl)piperidin-4-ylamino)-6-(4-(tetrahydro-2H-pyran-4-yl)phenylamino)nicotinamide]
> 1000	> 1000	100 to 1000	C[C@H](Nc1cc(Nc2ccc(C3CCOCC3)cc2)ncc1C(N)=O)C(C)(C)C [Example 167, (S)-4-(3,3-dimethylbutan-2-ylamino)-6-(4-(tetrahydro-2H-pyran-4-yl)phenylamino)nicotinamide]
10 to 100	100 to 1000	10 to 100	C[C@@H](Nc1cc(Nc2ccc(C3CCOCC3)cc2)ncc1C(N)=O)C(C)(C)C [Example 168, (R)-4-(3,3-dimethylbutan-2-ylamino)-6-(4-(tetrahydro-2H-pyran-4-yl)phenylamino)nicotinamide]
> 1000	> 1000	100 to 1000	CN(C)CC(C)(C)CNc1cc(Nc2ccc(C3CCOCC3)cc2)ncc1C(N)=O [Example 171, 4-(3-(dimethylamino)-2,2-dimethylpropylamino)-6-(4-(tetrahydro-2H-pyran-4-yl)phenylamino)nicotinamide]
100 to 1000	100 to 1000	10 to 100	NC(=O)c1cnc(Nc2ccc(C3CCOCC3)cc2)cc1NCc1nccs1 [Example 172, 6-(4-(tetrahydro-2H-pyran-4-yl)phenylamino)-4-(thiazol-2-ylmethylamino)nicotinamide]
> 1000	> 1000	100 to 1000	Cn1cc(CNc2cc(Nc3ccc(C4CCOCC4)cc3)ncc2C(N)=O)cn1 [Example 173, 4-((1-methyl-1H-pyrazol-4-yl)methylamino)-6-(4-(tetrahydro-2H-pyran-4-yl)phenylamino)nicotinamide]
100 to 1000	> 1000	10 to 100	NC(=O)c1cnc(Nc2ccc(C3CCOCC3)cc2)cc1NCc1ccccn1 [Example 174, 4-(pyridin-2-ylmethylamino)-6-(4-(tetrahydro-2H-pyran-4-yl)phenylamino)nicotinamide]
> 1000	> 1000	100 to 1000	NC(=O)c1cnc(Nc2ccc(C3CCOCC3)cc2)cc1NCc1ncccn1 [Example 175, 4-(pyrimidin-2-ylmethylamino)-6-(4-(tetrahydro-2H-pyran-4-yl)phenylamino)nicotinamide]
100 to 1000	100 to 1000	10 to 100	CCC(=O)N1CCC(c2ccc(Nc3cc(NCC4CCCC4)c(C(N)=O)cn3)cc2)CC1 [Example 176, 4-(cyclopentylmethylamino)-6-(4-(1-propionylpiperidin-4-yl)phenylamino)nicotinamide]
100 to 1000	100 to 1000	10 to 100	CCC(=O)N1CCC(c2ccc(Nc3cc(NCc4nccs4)c(C(N)=O)cn3)cc2)CC1 [Example 177, 6-(4-(1-propionylpiperidin-4-yl)phenylamino)-4-(thiazol-2-ylmethylamino)nicotinamide]
> 1000	> 1000	100 to 1000	CCC(=O)N1CCC(c2ccc(Nc3cc(NCc4cnn(C)c4)c(C(N)=O)cn3)cc2)CC1 [Example 178, 4-((1-methyl-1H-pyrazol-4-yl)methylamino)-6-(4-(1-propionylpiperidin-4-yl)phenylamino)nicotinamide]
100 to 1000	> 1000	10 to 100	CCC(=O)N1CCC(c2ccc(Nc3cc(NCc4ccccn4)c(C(N)=O)cn3)cc2)CC1 [Example 179, 6-(4-(1-propionylpiperidin-4-yl)phenylamino)-4-(pyridin-2-ylmethylamino)nicotinamide]
